A short description of the data set: In vivo elution of minocycline from the implant device. Conditions: within 72 hours. The procedure: The final implant device prepared above was pressed onto a silicone-release liner under normal ambient conditions (30-40% relative humidity). The implant device was vacuum sealed in foil pouches (with argon backflow) in a dry room (<20% relative humidity). The implant device was sterilized using 22-28 kGy of gamma radiation at a slow dose rate of 4-6 kGy/hour. Gamma irradiation was performed on dry ice, but can also be performed at ambient temperature. The bioactive agent content of the implant device was within +/−10% of the target dose. Greater than 80% minocycline eluted in vivo within 72 hours.

On to `CN(C)c1ccc(O)c2c1C[C@H]1C[C@H]3[C@H](N(C)C)C(O)=C(C(N)=O)C(=O)[C@@]3(O)C(O)=C1C2=O` [Minocycline], for which the “minocycline eluted in vivo” value is “Greater than 80%”.

The values are drawn from patent US9598532B2, “Terpolymers as pressure-sensitive adhesives” (Surmodics, Inc., priority 2010, dated 2017).
